Measurements taken from article PMC10222328 (Pharmaceuticals, 2023).

How the values were obtained:
[1] = tested on: carrageenan-induced rat paw edema; assay: Carrageenan-induced rat paw edema model; assay type: in vivo, Wistar albino rats; settings: for Rat paw thickness: mean ± SD; for inhibition in vivo at 2.5 mg/kg / inhibition in vivo at 5 mg/kg / inhibition in vivo at 10 mg/kg: Rattus norvegicus, po
[2] = target: T1, 5-LOX (Homo sapiens, UniProt P09917); assay: Fluorometric 5-LOX inhibitor screening kit; assay type: biochemical; settings: at 10 µM; mean ± standard error of two measurements; read-out: 5-LOX Percent of Inhibition
T1 construct: purchased Abcam, UK
T1 sequence (P09917 1-674): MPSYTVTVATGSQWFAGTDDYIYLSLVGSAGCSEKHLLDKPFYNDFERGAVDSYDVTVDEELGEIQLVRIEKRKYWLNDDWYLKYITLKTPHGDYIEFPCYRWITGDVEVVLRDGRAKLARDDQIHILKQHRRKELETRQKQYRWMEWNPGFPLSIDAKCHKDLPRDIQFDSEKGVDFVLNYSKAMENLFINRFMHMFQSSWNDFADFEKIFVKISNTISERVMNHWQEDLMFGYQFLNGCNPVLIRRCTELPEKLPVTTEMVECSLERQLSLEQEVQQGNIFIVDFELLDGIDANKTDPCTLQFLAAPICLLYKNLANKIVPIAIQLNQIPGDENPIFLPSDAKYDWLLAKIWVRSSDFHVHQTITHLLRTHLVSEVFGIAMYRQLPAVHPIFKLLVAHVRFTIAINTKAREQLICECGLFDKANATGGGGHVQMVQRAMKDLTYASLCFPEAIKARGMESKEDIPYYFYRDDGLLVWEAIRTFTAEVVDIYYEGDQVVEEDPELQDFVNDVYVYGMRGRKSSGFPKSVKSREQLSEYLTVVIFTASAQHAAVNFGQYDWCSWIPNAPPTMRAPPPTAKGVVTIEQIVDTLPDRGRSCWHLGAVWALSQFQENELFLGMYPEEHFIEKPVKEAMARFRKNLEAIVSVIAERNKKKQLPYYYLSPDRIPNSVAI

[3] = Acute oral toxicity evaluation in rats; assay type: in vivo, Wistar albino rats; settings: single oral dose 10 mg/kg, after 14 days, (absolute organ weight × 100%)/body weight
Procedure: Healthy male rats (n = 24, three rats per group, body weight 180–200 g) were used for conducting an acute oral toxicity study. Animals were divided into the following groups: a control group that included rats that received a single dose of 1% DMSO and experimental groups that involved rats that received compounds 1–7 in the single dose of 10 mg/kg.
After oral administration of the aforementioned agents, rats were kept in single cages and monitored during 14 days. Food and water intake, as well as body weight, were measured daily. All the behavioral changes and any signs of toxicity were monitored daily during 2-week protocol (fur and skin, eyes, salivation, respiration, urination (color), faeces consistency, somatomotor activity, and other alterations in behavior pattern). After accomplishing 14 days, animals were sacrificed and organ weight (liver, kidney, stomach, and heart) was recorded. Relative organ weight was calculated as follows:(absolute organ weight × 100%)/body weight of rat on the day of sacrifice.(1)

Work on `COC(=O)[C@H](Cc1cn(C)c2ccccc12)NC(=S)NC(=O)[C@@H](C)c1ccc2cc(OC)ccc2c1` [Compound 7, Methyl-N^α-(((S)-2-(6-methoxynaphthalen-2-yl)propanoyl)carbamothioyl)-1-methyltryptophanate] yielded a Rat paw thickness ([1]; 2.5 mg/kg per os, 1 h after carrageenan) of 7.03 ± 0.15 mm, a Rat paw thickness ([1]; 2.5 mg/kg per os, 2 h after carrageenan) of 6.47 ± 0.21 mm and a Rat paw thickness ([1]; 2.5 mg/kg per os, 3 h after carrageenan) of 6.10 ± 0.20 mm. For the same compound, the Rat paw thickness ([1]; 2.5 mg/kg per os, 4 h after carrageenan) was 5.87 ± 0.21 mm, the Rat paw thickness ([1]; 5.0 mg/kg per os, 1 h after carrageenan) was 7.10 ± 0.17 mm and the Rat paw thickness ([1]; 5.0 mg/kg per os, 2 h after carrageenan) was 6.80 ± 0.20 mm. The Rat paw thickness ([1]; 5.0 mg/kg per os, 3 h after carrageenan) was 6.43 ± 0.32 mm, the Rat paw thickness ([1]; 5.0 mg/kg per os, 4 h after carrageenan) was 6.03 ± 0.61 mm and the Rat paw thickness ([1]; 10.0 mg/kg per os, 1 h after carrageenan) was 6.87 ± 0.25 mm. It also gave a Rat paw thickness ([1]; 10.0 mg/kg per os, 2 h after carrageenan) of 6.50 ± 0.36 mm, a Rat paw thickness ([1]; 10.0 mg/kg per os, 3 h after carrageenan) of 6.03 ± 0.21 mm and a Rat paw thickness ([1]; 10.0 mg/kg per os, 4 h after carrageenan) of 5.47 ± 0.38 mm. For the same compound, the inhibition in vivo at 2.5 mg/kg ([1]; 1 h, 2.5 mg/kg per os, 1 h after carrageenan) was 21.6%, the inhibition in vivo at 5 mg/kg ([1]; 1 h, 5.0 mg/kg per os, 1 h after carrageenan) was 24.4% and the inhibition in vivo at 10 mg/kg ([1]; 1 h, 10.0 mg/kg per os, 1 h after carrageenan) was 14.8%. For the same compound, the inhibition in vivo at 2.5 mg/kg ([1]; 2 h, 2.5 mg/kg per os, 2 h after carrageenan) was 38.7%, the inhibition in vivo at 5 mg/kg ([1]; 2 h, 5.0 mg/kg per os, 2 h after carrageenan) was 29.5% and the inhibition in vivo at 10 mg/kg ([1]; 2 h, 10.0 mg/kg per os, 2 h after carrageenan) was 21.8%. It also gave an inhibition in vivo at 2.5 mg/kg ([1]; 3 h, 2.5 mg/kg per os, 3 h after carrageenan) of 47%, an inhibition in vivo at 5 mg/kg ([1]; 3 h, 5.0 mg/kg per os, 3 h after carrageenan) of 36.1% and an inhibition in vivo at 10 mg/kg ([1]; 3 h, 10.0 mg/kg per os, 3 h after carrageenan) of 32.4%. The inhibition in vivo at 2.5 mg/kg ([1]; 4 h, 2.5 mg/kg per os, 4 h after carrageenan) was 49.4%, the inhibition in vivo at 5 mg/kg ([1]; 4 h, 5.0 mg/kg per os, 4 h after carrageenan) was 47.1% and the inhibition in vivo at 10 mg/kg ([1]; 4 h, 10.0 mg/kg per os, 4 h after carrageenan) was 54.1%. For the same compound, the inhibition at 10 µM [2] was 20.7 ± 4.19%, the “Relative organ weight, heart” value [3] was 0.33 ± 0.03 and the “Relative organ weight, kidney” value [3] was 0.29 ± 0.03. The “Relative organ weight, liver” value [3] was 2.64 ± 0.46 and the “Relative organ weight, stomach” value [3] was 0.50 ± 0.04.
